Assay [1] deals with Death-associated protein kinase 3 (Homo sapiens) (UniProt O43293). As to conditions: at 10 µM.
Assay [2] concerns the target Tyrosine-protein kinase CSK (Homo sapiens) (UniProt P41240). In words: Selectivity interaction (KinomeScan (DiscoverX)) EUB0000607a CSK. As to conditions: at 10 µM.
Assay [3] deals with T1, Ephrin type-B receptor 3 (Homo sapiens) (UniProt P54753).
T1 sequence (whole entry): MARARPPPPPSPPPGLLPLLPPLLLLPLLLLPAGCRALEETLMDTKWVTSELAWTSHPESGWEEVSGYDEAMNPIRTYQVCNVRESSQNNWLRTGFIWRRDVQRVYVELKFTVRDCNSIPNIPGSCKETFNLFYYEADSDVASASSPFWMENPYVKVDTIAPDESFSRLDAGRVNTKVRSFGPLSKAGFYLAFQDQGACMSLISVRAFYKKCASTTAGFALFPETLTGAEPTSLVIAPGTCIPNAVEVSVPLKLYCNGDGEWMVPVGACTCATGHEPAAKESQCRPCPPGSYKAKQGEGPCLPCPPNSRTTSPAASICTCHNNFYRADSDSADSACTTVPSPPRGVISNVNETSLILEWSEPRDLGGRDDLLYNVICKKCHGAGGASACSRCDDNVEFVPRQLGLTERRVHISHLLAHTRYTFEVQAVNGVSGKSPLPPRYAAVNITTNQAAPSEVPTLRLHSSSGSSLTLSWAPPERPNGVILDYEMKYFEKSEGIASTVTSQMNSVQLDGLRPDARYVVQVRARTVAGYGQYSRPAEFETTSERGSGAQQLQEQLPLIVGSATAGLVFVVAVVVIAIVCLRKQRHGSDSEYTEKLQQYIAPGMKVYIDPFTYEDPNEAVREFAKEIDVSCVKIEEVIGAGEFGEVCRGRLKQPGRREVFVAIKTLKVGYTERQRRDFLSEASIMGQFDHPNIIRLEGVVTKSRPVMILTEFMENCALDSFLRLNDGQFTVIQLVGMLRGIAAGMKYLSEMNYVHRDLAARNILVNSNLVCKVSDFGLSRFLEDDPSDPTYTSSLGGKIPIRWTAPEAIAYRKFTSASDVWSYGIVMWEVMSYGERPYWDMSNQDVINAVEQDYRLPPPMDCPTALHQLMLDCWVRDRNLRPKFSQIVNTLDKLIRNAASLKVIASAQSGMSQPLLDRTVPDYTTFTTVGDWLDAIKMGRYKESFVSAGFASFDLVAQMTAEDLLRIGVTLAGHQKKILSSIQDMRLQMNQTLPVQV
In words: Selectivity interaction (SelectScreen profiling (Invitrogen)) EUB0000607a EPHB3. As to conditions: at 2 µM.

Assay [4] deals with Cyclin-dependent kinase 5 (Homo sapiens, UniProt Q00535). Conditions: at 10 µM.
Assay [5] addresses Tyrosine-protein kinase Fer (Homo sapiens) (UniProt P16591). In words: Selectivity interaction (ActivX KiNativ screen (kinase selectivity in THP-1 cell lysates)) EUB0000639a FER. The class given is subcellular. Conditions: lysate, at 1 µM.
Assay [6] has as its target Ribosomal protein S6 kinase alpha-1 (Homo sapiens, UniProt Q15418). In words: Selectivity interaction (ProQinase) EUB0000171b RPS6KA1.
In assay [7] the target is Eukaryotic translation initiation factor 2-alpha kinase 1 (Homo sapiens) (UniProt Q9BQI3). In words: Selectivity interaction (ProQinase) EUB0000171b EIF2AK1.
Assay [8] has as its target T2, Tyrosine-protein kinase JAK3 (Homo sapiens, UniProt P52333).
T2 sequence (P52333 whole entry): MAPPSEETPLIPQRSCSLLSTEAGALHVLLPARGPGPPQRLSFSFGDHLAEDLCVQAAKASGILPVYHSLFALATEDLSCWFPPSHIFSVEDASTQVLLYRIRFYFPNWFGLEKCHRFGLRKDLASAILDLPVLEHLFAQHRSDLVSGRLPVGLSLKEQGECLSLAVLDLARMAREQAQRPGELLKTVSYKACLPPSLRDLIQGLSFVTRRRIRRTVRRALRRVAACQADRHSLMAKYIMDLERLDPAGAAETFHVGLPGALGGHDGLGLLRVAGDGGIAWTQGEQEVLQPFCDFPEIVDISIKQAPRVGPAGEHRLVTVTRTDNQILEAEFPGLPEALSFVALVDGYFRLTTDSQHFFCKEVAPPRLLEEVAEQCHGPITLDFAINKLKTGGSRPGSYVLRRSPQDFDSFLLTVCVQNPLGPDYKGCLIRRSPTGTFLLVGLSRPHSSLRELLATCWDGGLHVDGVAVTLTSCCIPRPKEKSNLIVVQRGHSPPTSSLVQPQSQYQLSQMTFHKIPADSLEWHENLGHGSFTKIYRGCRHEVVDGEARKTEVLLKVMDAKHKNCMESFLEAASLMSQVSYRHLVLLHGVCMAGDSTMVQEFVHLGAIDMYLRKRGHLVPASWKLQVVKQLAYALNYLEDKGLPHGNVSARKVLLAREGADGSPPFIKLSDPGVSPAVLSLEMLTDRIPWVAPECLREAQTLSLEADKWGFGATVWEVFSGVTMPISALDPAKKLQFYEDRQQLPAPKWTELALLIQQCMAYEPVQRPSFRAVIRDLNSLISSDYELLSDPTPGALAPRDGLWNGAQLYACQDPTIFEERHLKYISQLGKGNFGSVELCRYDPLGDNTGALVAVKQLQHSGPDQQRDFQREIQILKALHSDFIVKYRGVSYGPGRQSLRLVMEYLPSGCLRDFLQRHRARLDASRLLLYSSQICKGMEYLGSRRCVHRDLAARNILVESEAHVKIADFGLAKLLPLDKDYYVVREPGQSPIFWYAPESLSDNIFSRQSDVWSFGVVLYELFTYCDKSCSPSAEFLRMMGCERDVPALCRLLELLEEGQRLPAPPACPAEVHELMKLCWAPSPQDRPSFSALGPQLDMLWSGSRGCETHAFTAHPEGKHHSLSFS

Assay [9] concerns the target Vascular endothelial growth factor receptor 2 (Homo sapiens, UniProt P35968).
For assay [10], the target named is Tyrosine-protein kinase Fer (Homo sapiens) (UniProt P16591). In words: Selectivity interaction (KinomeScan (DiscoverX)) EUB0000655a FER. As to conditions: at 10 µM.
The target of assay [11] is Bromodomain-containing protein 4 (Homo sapiens, UniProt O60885). Briefly: Selectivity interaction (Human bromodomain panel (DSF assay)) EUB0000233b BRD4. A general note: In DSF a fluorescence change marks the thermal transition of the protein.
Assay [12] concerns the target Ribosomal protein S6 kinase alpha-3 (Homo sapiens, UniProt P51812). Briefly: Selectivity interaction (KinomeScan (DiscoverX)) EUB0001079a RPS6KA3. Conditions: at 1 µM.
Assay [13] deals with Protein-tyrosine kinase 6 (Homo sapiens, UniProt Q13882). In words: Selectivity interaction (KinomeScan (DiscoverX)) EUB0000229b PTK6. Conditions: at 10 µM.
Chain of Protein-tyrosine kinase 6 (Q13882 whole entry, looked up): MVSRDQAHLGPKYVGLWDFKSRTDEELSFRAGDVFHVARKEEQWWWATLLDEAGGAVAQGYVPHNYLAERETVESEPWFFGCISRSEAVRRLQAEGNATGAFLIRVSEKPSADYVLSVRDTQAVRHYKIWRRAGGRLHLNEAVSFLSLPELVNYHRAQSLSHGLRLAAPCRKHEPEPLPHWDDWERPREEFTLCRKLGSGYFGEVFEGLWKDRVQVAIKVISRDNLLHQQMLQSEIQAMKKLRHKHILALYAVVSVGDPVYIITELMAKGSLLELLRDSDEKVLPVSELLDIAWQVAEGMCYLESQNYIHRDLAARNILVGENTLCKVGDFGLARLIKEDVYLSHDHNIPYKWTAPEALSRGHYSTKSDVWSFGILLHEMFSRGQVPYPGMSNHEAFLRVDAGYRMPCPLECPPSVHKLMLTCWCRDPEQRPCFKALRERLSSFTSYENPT

Chain of Tyrosine-protein kinase Fer (Homo sapiens) (P16591 whole entry, looked up): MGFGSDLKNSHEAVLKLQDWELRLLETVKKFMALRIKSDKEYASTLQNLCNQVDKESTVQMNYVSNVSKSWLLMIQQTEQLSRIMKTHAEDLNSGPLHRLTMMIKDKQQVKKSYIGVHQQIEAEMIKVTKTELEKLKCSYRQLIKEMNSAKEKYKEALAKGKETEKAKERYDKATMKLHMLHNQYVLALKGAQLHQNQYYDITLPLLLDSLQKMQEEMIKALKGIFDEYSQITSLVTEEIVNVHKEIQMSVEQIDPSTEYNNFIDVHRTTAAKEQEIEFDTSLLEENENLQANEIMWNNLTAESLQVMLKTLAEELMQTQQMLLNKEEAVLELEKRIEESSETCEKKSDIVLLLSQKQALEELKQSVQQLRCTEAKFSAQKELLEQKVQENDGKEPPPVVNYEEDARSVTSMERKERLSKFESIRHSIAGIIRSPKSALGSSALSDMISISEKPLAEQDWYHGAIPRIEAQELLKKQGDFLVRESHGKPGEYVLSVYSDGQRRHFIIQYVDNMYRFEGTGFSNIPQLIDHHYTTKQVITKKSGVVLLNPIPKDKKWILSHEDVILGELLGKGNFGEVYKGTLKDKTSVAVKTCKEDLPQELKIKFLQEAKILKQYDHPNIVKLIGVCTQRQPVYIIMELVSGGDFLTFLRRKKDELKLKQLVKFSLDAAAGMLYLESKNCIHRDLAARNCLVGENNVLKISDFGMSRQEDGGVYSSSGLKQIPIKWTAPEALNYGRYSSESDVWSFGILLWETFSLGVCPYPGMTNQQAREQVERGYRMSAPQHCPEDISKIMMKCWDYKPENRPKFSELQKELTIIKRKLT
Chain of Eukaryotic translation initiation factor 2-alpha kinase 1 (Homo sapiens) (Q9BQI3 whole entry): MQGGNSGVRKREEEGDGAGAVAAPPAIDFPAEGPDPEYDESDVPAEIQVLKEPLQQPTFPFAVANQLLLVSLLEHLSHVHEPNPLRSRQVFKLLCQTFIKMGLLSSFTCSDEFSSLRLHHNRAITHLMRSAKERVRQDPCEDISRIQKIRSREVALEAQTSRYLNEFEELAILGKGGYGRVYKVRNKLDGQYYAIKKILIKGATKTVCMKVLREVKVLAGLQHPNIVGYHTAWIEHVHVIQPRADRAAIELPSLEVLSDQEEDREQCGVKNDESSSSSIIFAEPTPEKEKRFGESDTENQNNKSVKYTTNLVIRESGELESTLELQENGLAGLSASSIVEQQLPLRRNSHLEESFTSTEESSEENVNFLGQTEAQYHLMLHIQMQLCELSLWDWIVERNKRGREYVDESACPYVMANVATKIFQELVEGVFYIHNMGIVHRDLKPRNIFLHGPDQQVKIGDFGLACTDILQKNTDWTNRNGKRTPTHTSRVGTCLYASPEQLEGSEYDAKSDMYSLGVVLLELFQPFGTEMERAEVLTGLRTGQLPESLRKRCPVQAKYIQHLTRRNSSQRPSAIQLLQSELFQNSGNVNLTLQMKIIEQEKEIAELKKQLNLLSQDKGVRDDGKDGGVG
Chain of Ribosomal protein S6 kinase alpha-1 (Q15418 whole entry): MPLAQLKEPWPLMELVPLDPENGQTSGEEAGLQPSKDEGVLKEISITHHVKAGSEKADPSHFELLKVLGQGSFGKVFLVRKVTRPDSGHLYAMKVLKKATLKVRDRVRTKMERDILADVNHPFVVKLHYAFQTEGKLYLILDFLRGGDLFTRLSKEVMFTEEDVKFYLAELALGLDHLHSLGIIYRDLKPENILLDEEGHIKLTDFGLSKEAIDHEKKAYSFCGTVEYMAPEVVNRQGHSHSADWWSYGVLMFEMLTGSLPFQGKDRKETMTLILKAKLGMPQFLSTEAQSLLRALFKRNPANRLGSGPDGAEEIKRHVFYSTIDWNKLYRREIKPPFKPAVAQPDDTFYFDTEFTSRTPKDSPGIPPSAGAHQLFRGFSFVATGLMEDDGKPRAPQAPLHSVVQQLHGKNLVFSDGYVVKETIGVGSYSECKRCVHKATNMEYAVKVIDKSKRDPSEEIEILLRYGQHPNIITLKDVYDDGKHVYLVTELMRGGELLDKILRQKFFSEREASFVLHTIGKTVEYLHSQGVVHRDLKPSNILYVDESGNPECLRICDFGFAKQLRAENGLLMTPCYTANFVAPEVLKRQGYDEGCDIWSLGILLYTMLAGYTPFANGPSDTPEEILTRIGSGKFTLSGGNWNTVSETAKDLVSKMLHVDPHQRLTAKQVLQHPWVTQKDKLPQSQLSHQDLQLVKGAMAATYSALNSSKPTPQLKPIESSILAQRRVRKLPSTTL
Chain of Ribosomal protein S6 kinase alpha-3 (P51812 whole entry): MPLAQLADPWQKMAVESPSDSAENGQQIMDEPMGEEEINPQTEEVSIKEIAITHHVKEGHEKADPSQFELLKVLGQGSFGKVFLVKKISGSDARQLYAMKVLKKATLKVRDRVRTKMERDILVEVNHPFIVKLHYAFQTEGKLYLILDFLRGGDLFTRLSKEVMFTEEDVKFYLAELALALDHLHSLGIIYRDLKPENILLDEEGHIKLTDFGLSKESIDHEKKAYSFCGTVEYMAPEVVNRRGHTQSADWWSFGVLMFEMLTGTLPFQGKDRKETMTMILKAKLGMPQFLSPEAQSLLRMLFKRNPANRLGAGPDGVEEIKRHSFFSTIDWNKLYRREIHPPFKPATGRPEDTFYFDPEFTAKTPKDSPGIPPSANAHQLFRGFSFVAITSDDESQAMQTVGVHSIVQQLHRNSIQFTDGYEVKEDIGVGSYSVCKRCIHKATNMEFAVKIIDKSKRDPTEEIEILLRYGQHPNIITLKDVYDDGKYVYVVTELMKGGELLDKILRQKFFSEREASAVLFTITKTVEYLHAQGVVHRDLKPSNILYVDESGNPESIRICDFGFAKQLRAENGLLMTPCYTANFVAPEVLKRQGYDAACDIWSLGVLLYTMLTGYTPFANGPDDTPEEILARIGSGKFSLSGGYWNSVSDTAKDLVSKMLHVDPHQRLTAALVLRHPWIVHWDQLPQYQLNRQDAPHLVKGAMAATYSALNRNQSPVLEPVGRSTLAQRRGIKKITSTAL
Chain of Cyclin-dependent kinase 5 (Q00535 whole entry, looked up): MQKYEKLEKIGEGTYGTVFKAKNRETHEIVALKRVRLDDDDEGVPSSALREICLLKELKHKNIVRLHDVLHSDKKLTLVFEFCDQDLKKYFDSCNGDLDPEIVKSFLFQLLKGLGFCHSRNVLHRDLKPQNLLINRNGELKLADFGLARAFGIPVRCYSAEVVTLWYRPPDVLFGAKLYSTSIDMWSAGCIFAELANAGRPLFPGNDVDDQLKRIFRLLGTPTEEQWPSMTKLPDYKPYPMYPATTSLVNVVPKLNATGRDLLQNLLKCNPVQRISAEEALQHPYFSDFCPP
Chain of Tyrosine-protein kinase CSK (Homo sapiens) (P41240 2-450 limits assumed): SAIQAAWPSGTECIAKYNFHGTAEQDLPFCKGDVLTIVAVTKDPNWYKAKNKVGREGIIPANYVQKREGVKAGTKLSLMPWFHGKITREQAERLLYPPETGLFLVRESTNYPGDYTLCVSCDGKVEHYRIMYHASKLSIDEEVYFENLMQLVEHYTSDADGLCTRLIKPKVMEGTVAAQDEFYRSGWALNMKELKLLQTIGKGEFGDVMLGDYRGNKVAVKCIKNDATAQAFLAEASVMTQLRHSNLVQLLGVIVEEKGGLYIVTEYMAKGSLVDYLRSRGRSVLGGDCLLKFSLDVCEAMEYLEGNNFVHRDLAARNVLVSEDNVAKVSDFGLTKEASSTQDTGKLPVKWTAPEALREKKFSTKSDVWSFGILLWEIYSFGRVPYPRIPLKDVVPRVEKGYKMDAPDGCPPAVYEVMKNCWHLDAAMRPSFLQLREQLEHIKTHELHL
Chain of Death-associated protein kinase 3 (Homo sapiens) (O43293 whole entry, looked up): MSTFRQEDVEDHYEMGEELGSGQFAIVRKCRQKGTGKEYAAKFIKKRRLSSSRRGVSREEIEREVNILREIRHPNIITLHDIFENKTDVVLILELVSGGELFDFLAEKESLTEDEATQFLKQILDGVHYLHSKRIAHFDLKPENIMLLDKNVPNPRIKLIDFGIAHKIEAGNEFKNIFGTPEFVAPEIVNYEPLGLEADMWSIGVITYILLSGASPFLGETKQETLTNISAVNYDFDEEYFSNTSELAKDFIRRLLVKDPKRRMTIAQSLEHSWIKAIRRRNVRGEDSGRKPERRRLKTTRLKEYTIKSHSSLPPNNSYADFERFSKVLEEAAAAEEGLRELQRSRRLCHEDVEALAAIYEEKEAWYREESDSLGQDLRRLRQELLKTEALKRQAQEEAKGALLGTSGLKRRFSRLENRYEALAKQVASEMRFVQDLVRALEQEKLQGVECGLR

`COCC(=O)NC/C=C/c1ccc2ncnc(Nc3ccc(Oc4ccc(C)nc4)c(C)c3)c2c1` [CP-724714] displayed a % of control in [1] of 96%. In [2], `CNC(=O)Nc1ccc(-c2nc(N3CC4CCC(C3)O4)c3cnn(C4CCC5(CC4)OCCO5)c3n2)cc1` yielded a % of control of 100%. Also, in assay [3], the % of inhibition is 3%. In [4], `Cc1cc([C@@H](C)Nc2ccccc2C(=O)O)c2nc(N3CCOCC3)cc(=O)n2c1` [AZD-6482] returned a % of control of 100%. On to `CC[C@@H]1[C@H](F)C(=O)N[C@@H]1COc1nccc2cc(C(N)=O)c(OC)cc12` [ZIMLOVISERTIB], for which the % of inhibition in assay [5] is -8.9%. Consider `C=CC(=O)Nc1cccc(C(=O)Nc2ccc(Nc3cc(-c4[nH]c(SC)nc4C)ccn3)cc2)c1`, for which the % of control in assay [6] (at 1 µM) was determined as 82%; in assay [6] (at 5 µM), 64%; in assay [7] (at 1 µM), 85%; in [7] (at 5 µM), 66%. Take `CCc1cccc(CC)c1NC(=O)c1nn(C)c2c1CCc1cnc(Nc3ccc(C(=O)NC4CCN(C)CC4)cc3OC(F)(F)F)nc1-2`: the IC50 in assay [8] and in [9] was more than 10 µM throughout. `CN(C)CCOc1ccc(-c2nc(-c3ccncc3)c(-c3ccc4c(c3)CC/C4=N\O)[nH]2)cc1` returned a % of control in [10] of 100%.

With `CN(C)CCCOc1ccc(-c2cc(NCCCn3cccn3)nc(S(C)(=O)=O)n2)cc1`, the dTM in assay [11] was less than 2 K. `Nc1cnc(N2CCc3cc(S(=O)(=O)Nc4c(F)cc(Cl)cc4F)cc(N4CCCC4=O)c32)nc1` [TP-020n] displayed a % of control in assay [12] of 84%. Take `COc1cc(N(C)c2ccnc3ccc(C(F)(F)F)cc23)cc(OC)c1OC`: the % binding in assay [13] was 94%.

These data come from ChEMBL document CHEMBL5465560, “Selectivity Literature for EUbOPEN Chemogenomic Library” (2024).
